We go through five compounds from publication PMC3486884 (PLoS Pathogens, 2012).

Each structure is given as a SMILES string. Like-named read-outs stand apart in the source and are kept apart here.

For data set [1], the target named is v-ATPase (Bos taurus, UniProt P23956). Description: v-ATPase inhibition assay (Pi production in clathrin-coated vesicles). As to conditions: bovine brain clathrin-coated vesicles.
Description: Cow brain CCV were prepared as described [59], diluted in assay buffer (200 mM sucrose, 50 mM KCl, 10 mM HEPES pH7, 1 mM EDTA, 5 µM nigericin, 10 µg/ml oligomycin, 1 mM vanadate) and incubated with the respective compounds at 4°C for 30 min. ATP (10 µl 2 mM ATP and 40 mM MgCl2) were added and the samples incubated at 37°C for 15 min. Production of inorganic phosphate (Pi) was measured with the Sensolyte MG phosphate assay kit according to the manufacturers protocols (AnaSpec).
Data set [2] relates to HRV1A. Put plainly: Full cycle infectivity assay (virus titer, TCID50). In kind it is cell-based, human rhinovirus. As to conditions: full cycle assays; BafA1 (0.5 nM), alone or drug combination.
Data set [3] deals with clathrin-coated vesicles (CCV). Description: Acridine orange measurements in clathrin-coated vesicles. As to conditions: AO red fluorescence assay.
Description: CCV suspended in assay buffer (10 mM HEPES, pH7, 100 mM KCl, 1 mM EDTA) were incubated with 1 mM ATP, 2 µM AO (Molecular Probes). The ATPase reaction was initiated by adding MgCl2 to 1 mM and fluorescence was determined at 492/540 nm in a plate reader (Tecan, Männedorf, Switzerland) at room temperature after 10 min. BafA1 and samples without MgCl2 were used as controls.
For data set [4] the following is noted: nitazoxanide; cited from earlier work.
In data set [5] the test system is HRV14. Description: microbe, parasite or virus in culture. Conditions: Human rhinovirus sp., HRV14, HeLa, read-out: IC50 (HRV14).
The test system of data set [6] is HRV1A. Put plainly: microbe, parasite or virus in culture. Conditions: Human rhinovirus sp.
In data set [7] the test system is CVB4. Put plainly: microbe, parasite or virus in culture. As to conditions: Enterovirus B, CVB4, HeLa, read-out: IC50 (CVB4).
For data set [8], the system named is HRV14. Conditions: HRV14, normalized to DMSO control (1), n=2, Figure S7A.
The subject of data set [9] is HRV16. Put plainly: microbe, parasite or virus in culture. Conditions: Human rhinovirus sp., HRV16, HeLa, read-out: IC50 (HRV16).
The subject of data set [10] is HRV2. Conditions: HRV2, normalized to DMSO control (1), n=2, Figure S7A.
The subject of data set [11] is CVB3. Conditions: n=2.
Data set [12] deals with influenza virus (strain A/Puerto Rico/8/34/H1N1 depicted PR8). Put plainly: microbe, parasite or virus in culture. Conditions: unidentified influenza virus, A549, read-out: IC50 (PR8).
For data set [13], the system named is HRV1A. As to conditions: n=2.
Data set [14] has as its system HRV16. Conditions: HRV16, normalized to DMSO control (1), n=2, Figure S7A.
In data set [15] the test system is CVA21. Put plainly: microbe, parasite or virus in culture. Conditions: Coxsackievirus, CVA21, HeLa, read-out: IC50 (CVA21).
Data set [16] deals with CVA21. Conditions: CVA21, normalized to DMSO control (1), n=2, Figure S7A.
Data set [17] has as its system HRV2. Put plainly: microbe, parasite or virus in culture. Conditions: Human rhinovirus sp., HRV2, HeLa, read-out: IC50 (HRV2).
In data set [18] the test system is CVB4. As to conditions: CVB4, normalized to DMSO control (1), n=2, Figure S7A.
The subject of data set [19] is hepatitis C virus. Conditions: cited from earlier work.

For `CO/C1=C\C(C)=C\[C@@H](C)[C@@H](O)[C@@H](C)C/C(C)=C/C=C/[C@H](OC)[C@@H]([C@@H](C)[C@@H](O)[C@H](C)[C@@]2(O)C[C@@H](O)[C@H](C)[C@@H](C(C)C)O2)OC1=O` [BafA1, bafilomycin A1], in data set [1], the “v-ATPase activity (ATP hydrolysis, production of Pi)” value was “completely blocked the production of Pi”. Besides, in data set [2], the “decrease of virus titers” value is “about five-fold”. In data set [3], the “pH of isolated CCV” value is given as “neutralized the pH of CCV in a dose-dependent manner”.

For the compound `CC(=O)Oc1ccccc1C(=O)Nc1ncc([N+](=O)[O-])s1` [Nitazoxanide, nitazoxanide], in data set [4], the pKa is 5.8.

`O=C(Nc1ccc([N+](=O)[O-])cc1Cl)c1ccccc1O` [TVB-1332]: the IC50 in [5] is 2.47 µM; in data set [6] (HeLa, read-out: IC50 (HRV1A)) it was 3.19 µM; in data set [7], 8.01 µM; in data set [9] it was 3.74 µM; in data set [12], roughly 2.7 µM; in [15], 14.7 µM. The IC50 in [17] was 2.36 µM. The activity at 0.03 µM in [6] (M-HeLa, 7 h, read-out: HRV1A infection (dsRNA), 0.03 µM) came to 108%. The activity at 0.1 µM in data set [6] (M-HeLa, 7 h, read-out: HRV1A infection (dsRNA), 0.10 µM) came out at 98%. Further, in data set [6] (M-HeLa, 7 h, read-out: HRV1A infection (dsRNA), 0.31 µM), the activity at 0.31 µM worked out at 96%. Further, in data set [6] (M-HeLa, 7 h, read-out: HRV1A infection (dsRNA), 0.93 µM), the activity at 0.93 µM came to 88%. Besides, the activity at 2.78 µM in [6] (M-HeLa, 7 h, read-out: HRV1A infection (dsRNA), 2.78 µM) turned out to be 44%. Also, in data set [6] (M-HeLa, 7 h, read-out: HRV1A infection (dsRNA), 8.33 µM), the activity at 8.33 µM stood at 5%. Besides, in [6] (M-HeLa, 7 h, read-out: HRV1A infection (dsRNA), 25.00 µM), the activity at 25 µM came out at 4%. Further, the relative infection in data set [8] (0.1 µM) is given as 0.91; in [8] (0.3 µM), 0.96; in data set [8] (0.9 µM) it was 0.82; in [8] (2.8 µM) it was 0.47; in data set [8] (8.3 µM), 0.09; in [8] (25.0 µM) it was 0.05. Besides, the relative infection in [10] (0.1 µM) was 0.94; in data set [10] (0.3 µM) it was 0.97; in [10] (0.9 µM), 0.95; in data set [10] (2.8 µM) it was 0.38; in data set [10] (8.3 µM), 0.01; in data set [10] (25.0 µM) it was 0.01. Further, the relative infection is on record as 1.01 in [11] (0.1 µM); 1.08 in data set [11] (2.8 µM); 1.11 in data set [11] (CVB3, 0.3 µM, normalized to DMSO control (1), Figure S7A); 1.07 in data set [11] (CVB3, 0.9 µM, normalized to DMSO control (1), Figure S7A); 1.05 in data set [11] (CVB3, 8.3 µM, normalized to DMSO control (1), Figure S7A); 1.15 in data set [11] (CVB3, 25.0 µM, normalized to DMSO control (1), Figure S7A). Besides, the relative infection in [13] (0.1 µM) is reported as 0.99; in [13] (0.3 µM), 1.01; in data set [13] (0.9 µM) it was 0.97; in data set [13] (2.8 µM), 0.61; in data set [13] (8.3 µM), 0.04; in [13] (25.0 µM), 0.02. In addition, the relative infection in [14] (0.1 µM) was found to be 0.98; in data set [14] (0.3 µM) it was 0.95; in data set [14] (0.9 µM), 0.94; in data set [14] (2.8 µM) it was 0.66; in [14] (8.3 µM) it was 0.14; in data set [14] (25.0 µM), 0.07. The relative infection is 0.91 in [16] (0.1 µM); 0.95 in data set [16] (0.3 µM); 0.93 in data set [16] (0.9 µM); 1.02 in data set [16] (2.8 µM); 0.81 in data set [16] (8.3 µM); 0.20 in data set [16] (25.0 µM). Moreover, the relative infection in data set [18] (0.1 µM) was determined as 1.10; in data set [18] (0.3 µM), 1.16; in data set [18] (0.9 µM), 1.25; in data set [18] (2.8 µM), 0.86; in data set [18] (8.3 µM) it was 0.34; in data set [18] (25.0 µM), 0.33.

For the compound `CCN(CC)CCCC(C)Nc1ccnc2cc(Cl)ccc12` (stereo not drawn) [chloroquine], the IC90 in [19] was 20 µM.

Take `C/C=C/[C@H]1O[C@@](O)([C@@H](C)[C@H](O)[C@H](C)[C@H]2OC(=O)/C(OC)=C/C(C)=C/[C@@H](C)[C@@H](O)[C@@H](CC)[C@@H](O)[C@H](C)C/C(C)=C/C=C/[C@@H]2OC)C[C@@H](O[C@H]2C[C@@H](O)[C@H](OC(N)=O)[C@@H](C)O2)[C@@H]1C` [concanamycin A]: in [1], the “v-ATPase activity (ATP hydrolysis, production of Pi)” value was “completely blocked the production of Pi”. For the same compound, in [3], the “pH of isolated CCV” value is “neutralized the pH of CCV in a dose-dependent manner”.

What is called pKa is the negative logarithm of the acid dissociation constant. In general, IC50 refers to the concentration that inhibits the measured activity by half. The term IC90 denotes the concentration needed for an effect of 90%.
